Results as given in ChEMBL document CHEMBL1201862, “PubChem BioAssay data set” (2004).
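Exposure lasted 48 hours, with cells grown in 96-well plates and compounds tested at five concentrations. Here, GI50 denotes the concentration required for 50% inhibition of growth.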 Active and inactive are the calls of the source. Cut-off read from the data, not from the text of the source: active = GI50 up to about 1.1 µM and inactive = higher.

How the values were obtained:
Experiment in all cases: NCI tumour cell line growth inhibition, 48 h
[1] = system: RXF 393
[2] = system: MOLT-4
[3] = system: SNB-19
[4] = system: HOP-62
[5] = system: HOP-92
[6] = system: EKVX
[7] = system: SNB-75
[8] = system: K562
[9] = system: U-251
[10] = system: NCI-H226
[11] = system: SK-MEL-2
[12] = system: HCT-15
[13] = system: KM12
[14] = system: MCF7
[15] = system: MDA-MB-231
[16] = system: DU-145
[17] = system: CCRF-CEM
[18] = system: NCI-H23
[19] = system: ACHN
[20] = system: NCI-H522

Structure (SMILES): CCOC(=O)c1cc(Br)c(-c2cc(C)co2)[nH]1
- GI50 [1]: > 100 µM (inactive)
- GI50 [2]: 54.6 µM (inactive)
- GI50 [3]: > 100 µM (inactive)
- GI50 [4]: > 100 µM (inactive)
- GI50 [5]: > 100 µM (inactive)
- GI50 [6]: 67 µM (inactive)
- GI50 [7]: > 100 µM (inactive)
- GI50 [8]: 69.8 µM (inactive)
- GI50 [9]: > 100 µM (inactive)
- GI50 [10]: > 100 µM (inactive)
- GI50 [11]: > 100 µM (inactive)
- GI50 [12]: > 100 µM
- GI50 [13]: 73.3 µM (inactive)
- GI50 [14]: > 100 µM (inactive)
- GI50 [15]: > 100 µM (inactive)
- GI50 [16]: > 100 µM (inactive)
- GI50 [17]: > 100 µM (inactive)
- GI50 [18]: > 100 µM (inactive)

Structure (SMILES): CN(CCSCCN(C)C(=O)OC(C)(C)C)C(=O)OC(C)(C)C
- GI50 [2]: > 100 µM (inactive)
- GI50 [3]: > 100 µM (inactive)
- GI50 [4]: > 100 µM (inactive)
- GI50 [5]: > 100 µM (inactive)
- GI50 [6]: > 100 µM (inactive)
- GI50 [7]: 61.5 µM (inactive)
- GI50 [8]: > 100 µM (inactive)
- GI50 [9]: > 100 µM (inactive)
- GI50 [19]: > 100 µM (inactive)
- GI50 [11]: > 100 µM (inactive)
- GI50 [12]: > 100 µM
- GI50 [13]: > 100 µM (inactive)
- GI50 [14]: > 100 µM (inactive)
- GI50 [15]: > 100 µM (inactive)
- GI50 [16]: > 100 µM (inactive)
- GI50 [17]: > 100 µM (inactive)
- GI50 [20]: > 100 µM (inactive)
- GI50 [18]: > 100 µM (inactive)

Structure (SMILES): CC(C)(C)[Si](C)(C)OC1/C(=C/C#N)C(n2ccc(=O)[nH]c2=O)OC1CO (stereo unspecified)
- GI50 [1]: > 100 µM (inactive)
- GI50 [2]: > 100 µM (inactive)
- GI50 [3]: > 100 µM (inactive)
- GI50 [4]: > 100 µM (inactive)
- GI50 [5]: 3.01 µM (inactive)
- GI50 [8]: 96.2 µM (inactive)
- GI50 [9]: > 100 µM (inactive)
- GI50 [19]: > 100 µM (inactive)
- GI50 [11]: > 100 µM (inactive)
- GI50 [13]: > 100 µM (inactive)
- GI50 [14]: > 100 µM (inactive)
- GI50 [15]: > 100 µM (inactive)
- GI50 [16]: > 100 µM (inactive)
- GI50 [20]: > 100 µM (inactive)
- GI50 [18]: > 100 µM (inactive)

Structure (SMILES): O=C1/C(=C/Cc2ccco2)N=C(c2ccccc2)N1c1nc2ccc(Sc3ccccc3)cc2[nH]1
- GI50 [1]: 15.1 µM (inactive)
- GI50 [2]: 16.3 µM (inactive)
- GI50 [3]: 33.2 µM (inactive)
- GI50 [4]: 30.1 µM (inactive)
- GI50 [5]: 18.7 µM (inactive)
- GI50 [6]: 25.6 µM (inactive)
- GI50 [7]: 19.5 µM (inactive)
- GI50 [8]: 28.1 µM (inactive)
- GI50 [9]: 19.7 µM (inactive)
- GI50 [19]: 19.4 µM (inactive)
- GI50 [11]: 16.1 µM (inactive)
- GI50 [12]: 30.5 µM
- GI50 [13]: 16.7 µM (inactive)
- GI50 [14]: 14 µM (inactive)
- GI50 [15]: 20.5 µM (inactive)
- GI50 [16]: 23.1 µM (inactive)
- GI50 [17]: 19.3 µM (inactive)

Structure (SMILES): COC(=O)CC(c1ccccc1)C(C#N)(OP1(=O)OC(c2ccccc2)C(C)N1C)c1ccccc1 (stereo unspecified)
- GI50 [1]: > 100 µM (inactive)
- GI50 [2]: 19.5 µM (inactive)
- GI50 [3]: 73.5 µM (inactive)
- GI50 [4]: > 100 µM (inactive)
- GI50 [5]: 94 µM (inactive)
- GI50 [6]: 77.1 µM (inactive)
- GI50 [7]: > 100 µM (inactive)
- GI50 [8]: 26.2 µM (inactive)
- GI50 [9]: 54.1 µM (inactive)
- GI50 [19]: 39.4 µM (inactive)
- GI50 [11]: 27.9 µM (inactive)
- GI50 [12]: 41.2 µM
- GI50 [13]: 35 µM (inactive)
- GI50 [14]: 37.2 µM (inactive)
- GI50 [15]: > 100 µM (inactive)
- GI50 [16]: > 100 µM (inactive)
- GI50 [17]: 37.8 µM (inactive)
- GI50 [20]: 35 µM (inactive)
- GI50 [18]: 57.3 µM (inactive)

Structure (SMILES): CCOC(=O)CCCn1nnc(C(=O)OCC)c1C(=O)OCC
- GI50 [1]: > 100 µM (inactive)
- GI50 [2]: > 100 µM (inactive)
- GI50 [3]: > 100 µM (inactive)
- GI50 [4]: > 100 µM (inactive)
- GI50 [5]: > 100 µM (inactive)
- GI50 [6]: > 100 µM (inactive)
- GI50 [7]: > 100 µM (inactive)
- GI50 [9]: > 100 µM (inactive)
- GI50 [10]: > 100 µM (inactive)
- GI50 [19]: > 100 µM (inactive)
- GI50 [11]: > 100 µM (inactive)
- GI50 [12]: > 100 µM
- GI50 [13]: > 100 µM (inactive)
- GI50 [14]: > 100 µM (inactive)
- GI50 [15]: > 100 µM (inactive)
- GI50 [16]: > 100 µM (inactive)
- GI50 [17]: > 100 µM (inactive)
- GI50 [18]: > 100 µM (inactive)

Structure (SMILES): CCOC(=O)c1c[nH]c2c(Sc3ccccc3)nccc2c1=O
- GI50 [2]: 17.8 µM (inactive)
- GI50 [3]: > 100 µM (inactive)
- GI50 [4]: > 100 µM (inactive)
- GI50 [5]: 46.9 µM (inactive)
- GI50 [6]: > 100 µM (inactive)
- GI50 [7]: 71.1 µM (inactive)
- GI50 [9]: 44.4 µM (inactive)
- GI50 [10]: 95.3 µM (inactive)
- GI50 [19]: > 100 µM (inactive)
- GI50 [11]: > 100 µM (inactive)
- GI50 [12]: > 100 µM
- GI50 [13]: 44.6 µM (inactive)
- GI50 [14]: 71.4 µM (inactive)
- GI50 [15]: 53.1 µM (inactive)
- GI50 [16]: 90.8 µM (inactive)
- GI50 [17]: 22.3 µM (inactive)
- GI50 [20]: 19.7 µM (inactive)
- GI50 [18]: 32.4 µM (inactive)

Structure (SMILES): Cc1cccc2oc3c(CC(=O)O)cccc3c(=O)c12
- GI50 [2]: > 100 µM (inactive)
- GI50 [3]: > 100 µM (inactive)
- GI50 [4]: > 100 µM (inactive)
- GI50 [5]: > 100 µM (inactive)
- GI50 [6]: > 100 µM (inactive)
- GI50 [8]: > 100 µM (inactive)
- GI50 [9]: > 100 µM (inactive)
- GI50 [10]: > 100 µM (inactive)
- GI50 [19]: > 100 µM (inactive)
- GI50 [11]: 5.16 µM (inactive)
- GI50 [12]: > 100 µM
- GI50 [13]: > 100 µM (inactive)
- GI50 [14]: > 100 µM (inactive)
- GI50 [15]: > 100 µM (inactive)
- GI50 [16]: > 100 µM (inactive)
- GI50 [17]: > 100 µM (inactive)
- GI50 [20]: > 100 µM (inactive)
- GI50 [18]: > 100 µM (inactive)
